Experimental data as given in publication PMC12040169 (PLOS Biology, 2025).

Assay: in vitro
Settings: human, hela cells, % viability

SMILES | viability at 28.5 h, 10 µM | viability at 28.5 h, 10 µM (bulk resorufin, single well)
Cc1ccc(S(=O)(=O)N/N=C(/c2ccccc2)c2ccc(OCC(C)C)cc2)cc1 [CBK261056] | 87.8% | 
O=[N+]([O-])c1ccc(/C=N/CCCN2CCOCC2)cc1 [CBK261058] | 87.5% | 
CCOC(=O)/C(=N/Nc1cccc(C)c1)c1csc(N)n1 [CBK261059] | 97.9% | 
O=C(COc1ccc(Cl)cc1Cl)NC(Cc1ccccc1)C(=O)O (stereo not drawn) [CBK261061] | 102% | 
O=C(O)CSc1c(NC(=O)c2ccccc2)sc2c1CCCC2 [CBK261062] | 97.5% | 
c1nncn1/N=C1/CCCc2nonc21 [CBK261065] | 91.8% | 
O=C(NC(=S)Nc1ccc(S(=O)(=O)Nc2nccs2)cc1)C12CC3CC(CC(C3)C1)C2 [CBK261067] | 101% | 
NC(=O)NS(=O)(=O)c1ccc(NC(=S)NC(=O)c2ccco2)cc1 [CBK261068] | 117% | 
Cc1nc2c([N+](=O)[O-])c3c(c([N+](=O)[O-])c2[nH]1)Nc1nonc1N3 [CBK261069] | 107% | 
CC(C)(C)N=C1c2nn(Cc3ccccc3)nc2C(=NC(C)(C)C)c2nn(Cc3ccccc3)nc21 [CBK261070] | 103% | 
CC(C)(C)c1cc(C(C)(C)C)cc(S(=O)(=O)CCc2ccccn2)c1 [CBK261073] | 88.4% | 
c1cc2c3c(ccc(CSCCc4ccncc4)c3c1)CC2 [CBK261074G] | 90.4% | 
O=C(O)c1ccccc1NC1SC(=O)N(c2ccccc2)C1=O (stereo not drawn) [CBK261078] | 93.7% | 
O=C(O)CCC(=O)NNC(=O)c1ccccc1[N+](=O)[O-] [CBK261079] | 95.8% | 
O/N=C(\Cn1cncn1)c1ccc(Cl)cc1Cl [CBK261085] | 93.5% | 
COc1cc(-c2ccc(/N=C/c3ccccc3O)c(OC)c2)ccc1/N=C/c1ccccc1O [CBK261089] | 101% | 
CC(C)(C)NC(NC(=O)Cc1ccccc1)C(Cl)(Cl)Cl (stereo not drawn) [CBK261090] | 86.5% | 
O=C(NC(NC1CCS(=O)(=O)C1)C(Cl)(Cl)Cl)c1ccc(Br)cc1 (stereo not drawn) [CBK261091] | 98.2% | 
CN(C)CCO/N=C(\c1ccccc1)c1ccncc1 [CBK261095G] | 94.2% | 
O=C(O)c1cccc(NC(=O)c2c(C(=O)O)cccc2[N+](=O)[O-])c1 [CBK261096] | 99.6% | 

SMILES | viability at 28.5 h, 10 µM | viability at 28.5 h, 10 µM (bulk resorufin, single well)
O=C(O)c1cccc(NCN2C(=O)c3ccc([N+](=O)[O-])cc3C2=O)c1 [CBK261100] | 96% | 
O=C(O)c1ccc(C(=O)O)c(-c2ccccc2)c1 [CBK261102] | 104% | 
CCOP(=O)(O)c1c([N+](=O)[O-])cc(C(F)(F)F)cc1[N+](=O)[O-] [CBK261106G] | 103% | 
CC(C)NCC(O)Cn1c2c(c3ccccc31)CCc1c-2cnn1-c1ccccc1 (stereo not drawn) [CBK261107] | 99.6% | 
Nc1nonc1C(=NCc1ccccc1)NO [CBK261109] | 105% | 
NS(=O)(=O)c1ccc(Nc2nc3nonc3nc2Nc2ccc(S(N)(=O)=O)cc2)cc1 [CBK261110] | 97.5% | 
O=C(Nn1cnnc1)c1ccc(C(=O)Nn2cnnc2)cc1 [CBK261111] | 101% | 
O=C(NC(C(=O)N/N=C/c1ccc(Cl)cc1Cl)c1n[nH]c(=O)c2ccccc12)c1ccccc1 (stereo not drawn) [CBK261118] | 103% | 
Cc1ccc(S(=O)(=O)Nc2cc(C)on2)cc1 [CBK261119] | 93.7% | 
O=C1NC(=O)N(Cc2ccccc2)C(=O)/C1=N\Nc1ccc([N+](=O)[O-])cc1 [CBK261123] |  | 94.5%
CCOc1ccc(N2C(=O)NC(=O)/C(=C\NCCc3c[nH]c4ccccc34)C2=O)cc1 [CBK261125] |  | 104%
O=C(CNc1ccc2ccccc2c1)N/N=C/c1cc2c(cc1[N+](=O)[O-])OCO2 [CBK261126] | 83.1% | 
O=C(Nc1cccc2nsnc12)c1cc(Cl)ccc1NS(=O)(=O)c1cccc2nsnc12 [CBK261129] | 80.9% | 
CCN1CCN(c2ccc(Nc3ccnc4cc5ccccc5cc34)cc2)CC1 [CBK261130] | 79.8% | 
COc1ccc(N(CCN2CCCCC2)S(=O)(=O)c2ccc(C)cc2)cc1 [CBK261131] | 98.7% | 
O=S(=O)(NCCN1CCCC1)c1cccc2nsnc12 [CBK261132] | 97.3% | 
O=C1c2ccccc2C(=O)N1CC1c2ccccc2CCN1S(=O)(=O)c1cccc2nsnc12 (stereo not drawn) [CBK261133] | 108% | 
O=C1CN(S(=O)(=O)CCOc2ccccc2)CC(=O)N1CCc1ccccc1 [CBK261134] | 92.8% | 
O=S(=O)(NCc1nc2ccccc2[nH]1)c1ccc(Cl)c(Cl)c1 [CBK261137] | 86.2% | 
N#CCCN(CCc1ccccc1)S(=O)(=O)c1cccc2nsnc12 [CBK261138] | 104% | 

SMILES | viability at 28.5 h, 10 µM | viability at 28.5 h, 10 µM (bulk resorufin, single well)
Cc1ccc(S(=O)(=O)NCC(=O)O)c2nsnc12 [CBK261140] | 93.1% | 
Brc1cccc(/C=N/c2ccc3nc(-c4ccccc4)[nH]c3c2)c1 [CBK261143] | 109% | 
NNC(=O)C(NC(=O)c1ccccc1)c1n[nH]c(=O)c2ccccc12 (stereo not drawn) [CBK261144] | 92.9% | 
Nc1ccc(Cc2ccc(N)c(O)c2)cc1O [CBK261149] | 100% | 
N#Cc1ccc(Oc2ccc3c(c2)-c2cc(Oc4ccc(C#N)c(C#N)c4)ccc2S3(=O)=O)cc1C#N [CBK261151] | 92.4% | 
Nc1ccc(-c2nc(-c3ccccc3)c3cc(-c4ccc5nc(-c6ccc(N)cc6)nc(-c6ccccc6)c5c4)ccc3n2)cc1 [CBK261152] | 107% | 
Nc1ccc(Cc2ccc(N)c(C(=O)O)c2)cc1C(=O)O [CBK261153] | 92.3% | 
Cc1ccc(S(=O)(=O)Nc2ccc(C3(c4ccc(NS(=O)(=O)c5ccc(C)cc5)cc4)c4ccccc4-c4ccccc43)cc2)cc1 [CBK261154] | 102% | 
N#Cc1ccc(Oc2cccc(/N=C/c3ccc(/C=N/c4cccc(Oc5ccc(C#N)cc5)c4)cc3)c2)cc1 [CBK261157] | 93.7% | 
OB(O)c1ccc(Oc2ccc(B(O)O)cc2)cc1 [CBK261159] | 102% | 
O=C1c2ccccc2C(c2ccc(NC(=O)c3cccc4ccccc34)cc2)(c2ccc(NC(=O)c3cccc4ccccc34)cc2)c2ccccc21 [CBK261162] | 103% | 
O=C(Nc1ccc(C2(c3ccc(NC(=O)c4cccc5ccccc45)cc3)c3ccccc3-c3ccccc32)cc1)c1cccc2ccccc12 [CBK261163] | 102% | 
O=C(Nc1ccc(-c2c3ccccc3c(-c3ccc(NC(=O)c4cccc5ccccc45)cc3)c3ccccc23)cc1)c1cccc2ccccc12 [CBK261164] | 93.6% | 
CC(=O)Nc1ccc(-c2nc3cc(-c4nc5ccc(NC(C)=O)cc5[nH]4)ccc3[nH]2)cc1 [CBK261165] | 91.2% | 
O=C(Nc1ccccc1C(=O)O)c1cccc(C(=O)Nc2ccccc2C(=O)O)c1 [CBK261166] | 105% | 
NC(=O)c1ccccc1NC(=O)c1ccc(C(=O)Nc2ccccc2C(N)=O)cc1 [CBK261167] | 106% | 
NC(=O)c1ccccc1NC(=O)c1ccc2ccccc2c1 [CBK261171] | 90.8% | 
COC(=O)CCCNS(=O)(=O)c1ccc([N+](=O)[O-])cc1 [CBK261172] | 109% | 
CCOC(=O)C(C(C)=O)(N1CCOCC1)N1CCOCC1 [CBK261173] | 90.2% | 
Cc1ccc2nc(C(=O)O)cc(C(=O)O)c2c1 [CBK261174] | 91.6% | 
